ChEMBL document CHEMBL1201862, “PubChem BioAssay data set” (2004)
Activity calls are given as the source filed them.

Experiments:
[1] = biological target: Luciferin 4-monooxygenase (Photinus pyralis, UniProt P08659); test: Counter Screen for Luciferase-based Assay Positives. [Related pubchem assays: 620, 618, 411 ]
[2] = insulin promoter down-regulators in MIN6 cells, imaging, high-content screening, mouse beta cells (AID 1628); format: functional
[3] = Luminescence Cell-Based Dose Response HTS to Identify Inhibitors of 5'UTR Stem-Loop Driven Prion Protein mRNA Translation in H4 Neuroglioblastoma Cells. [Related pubchem assays: 1827 (Project Summary), 1813 (Primary HTS)]; format: functional
CAAX prenyl protease 2 = CAAX prenyl protease 2 (Homo sapiens, UniProt Q9Y256); test: human Rce1 protease inhibitors, dose response, biochemical, yeast membranes, quenched-peptide fluorescence, cherry-pick (AID 588849)
CAAX prenyl protease 2, sequence (Q9Y256 whole entry): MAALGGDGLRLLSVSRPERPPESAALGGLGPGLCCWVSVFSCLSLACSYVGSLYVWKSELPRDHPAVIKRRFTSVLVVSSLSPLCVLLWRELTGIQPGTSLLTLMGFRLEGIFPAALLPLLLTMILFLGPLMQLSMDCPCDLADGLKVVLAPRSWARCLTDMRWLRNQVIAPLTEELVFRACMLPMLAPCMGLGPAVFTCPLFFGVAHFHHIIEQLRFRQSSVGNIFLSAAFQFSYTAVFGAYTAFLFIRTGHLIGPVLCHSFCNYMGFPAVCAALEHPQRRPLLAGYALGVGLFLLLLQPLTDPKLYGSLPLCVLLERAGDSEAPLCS

[4] = cytotoxicity in MIN6 insulinoma cells, dose response, cytotoxicity control, cell-based, mouse insulinoma (AID 2122); format: functional;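 further: confirmatory high-throughput counterscreen run to flag cytotoxic compounds; mouse MIN-6 beta cells carrying an insulin promoter eGFP reporter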
HEK293 [5] = test: cells; conditions: Homo sapiens
[6] = biological target: T1, DNA repair and recombination protein RAD54-like (Homo sapiens, UniProt Q92698); test: inhibitors of human RAD54 branch migration, confirmation, biochemical, fluorescence, cherry-picked samples, dose series (AID 651657); format: functional
T1 sequence (Q92698 whole entry): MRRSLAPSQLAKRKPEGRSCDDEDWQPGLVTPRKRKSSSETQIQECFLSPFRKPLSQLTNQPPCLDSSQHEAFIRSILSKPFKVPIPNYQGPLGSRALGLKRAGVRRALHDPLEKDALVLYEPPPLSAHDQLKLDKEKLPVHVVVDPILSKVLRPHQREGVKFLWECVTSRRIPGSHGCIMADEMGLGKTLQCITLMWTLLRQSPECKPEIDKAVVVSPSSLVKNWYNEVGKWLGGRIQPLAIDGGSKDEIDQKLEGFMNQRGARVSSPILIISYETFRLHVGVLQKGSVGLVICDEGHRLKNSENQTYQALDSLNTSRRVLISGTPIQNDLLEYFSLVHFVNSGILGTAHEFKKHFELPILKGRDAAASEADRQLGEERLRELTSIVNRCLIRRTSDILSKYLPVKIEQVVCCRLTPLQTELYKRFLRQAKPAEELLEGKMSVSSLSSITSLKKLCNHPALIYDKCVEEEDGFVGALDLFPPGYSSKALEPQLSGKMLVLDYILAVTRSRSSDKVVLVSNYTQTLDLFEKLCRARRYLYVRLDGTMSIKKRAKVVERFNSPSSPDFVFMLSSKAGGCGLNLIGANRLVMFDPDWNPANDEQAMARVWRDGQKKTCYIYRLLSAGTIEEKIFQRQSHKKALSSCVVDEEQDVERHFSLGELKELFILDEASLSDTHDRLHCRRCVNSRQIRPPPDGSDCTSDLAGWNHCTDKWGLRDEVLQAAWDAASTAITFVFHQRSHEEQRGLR

[7] = inhibitors of SNCA 5'UTR-driven reporter translation, confirmation, H4 neuroglioma cells, luminescence (AID 1988); format: functional, cell-based
[8] = DNA binding of candidate compounds, dose response, artefact control for RAD54 inhibitor project, biochemical, fluorescence polarization, cherry-pick (AID 651673); format: functional
HT-1080 = test: cytotoxicity in HT1080 fibrosarcoma cells, cell-based, fluorescence readout (AID 620); format: functional; conditions: Homo sapiens
HEK293 [9] = test: cells; conditions: Homo sapiens; remark: listed apart in the source
Paired box protein Pax-8 = Paired box protein Pax-8 (Homo sapiens, UniProt Q06710); test: inhibitors of PAX8-driven TPO luciferase reporter, dose response, RMG-I cells, cherry-pick (AID 687027); format: functional, cell-based;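 further: luciferase reporter driven by Pax8 target thyroperoxidase promoter measured by SteadyGlo luminescence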
Paired box protein Pax-8, sequence (Q06710 whole entry): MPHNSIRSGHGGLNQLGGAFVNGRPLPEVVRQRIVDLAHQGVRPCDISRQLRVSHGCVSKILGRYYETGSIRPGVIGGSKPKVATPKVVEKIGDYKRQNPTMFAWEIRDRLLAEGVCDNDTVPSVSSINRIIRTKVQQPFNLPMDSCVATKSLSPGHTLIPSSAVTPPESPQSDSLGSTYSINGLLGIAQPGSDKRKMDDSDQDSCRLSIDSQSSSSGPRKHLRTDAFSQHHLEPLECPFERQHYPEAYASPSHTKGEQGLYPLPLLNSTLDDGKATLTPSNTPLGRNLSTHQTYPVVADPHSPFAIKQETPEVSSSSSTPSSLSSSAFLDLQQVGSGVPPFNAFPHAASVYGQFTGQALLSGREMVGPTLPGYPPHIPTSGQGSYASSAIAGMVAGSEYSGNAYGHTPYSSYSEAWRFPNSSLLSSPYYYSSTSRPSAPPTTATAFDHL

BJ [10] = test: cytotoxicity toward Ras-transformed BJeLR fibroblasts, dose response, cell-based, alamar blue fluorescence, cherrypicked samples (AID 2631); format: functional; conditions: Homo sapiens;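 further: confirmatory dose-response assay in RAS-dependent BJ fibroblasts engineered with TERT, LT and ST, with cytotoxicity read by fluorescence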
BJ [11] = test: cells; format: functional, cell-based; conditions: Homo sapiens
[12] = biological target: T2, Microphthalmia-associated transcription factor (Homo sapiens, UniProt O75030); test: TRPM1 promoter luciferase signal decrease, dose response, MITF inhibitor project, cell-based, SK-MEL-5, cherry-picked, set 3 (AID 493073); format: functional
T2 sequence (O75030 whole entry): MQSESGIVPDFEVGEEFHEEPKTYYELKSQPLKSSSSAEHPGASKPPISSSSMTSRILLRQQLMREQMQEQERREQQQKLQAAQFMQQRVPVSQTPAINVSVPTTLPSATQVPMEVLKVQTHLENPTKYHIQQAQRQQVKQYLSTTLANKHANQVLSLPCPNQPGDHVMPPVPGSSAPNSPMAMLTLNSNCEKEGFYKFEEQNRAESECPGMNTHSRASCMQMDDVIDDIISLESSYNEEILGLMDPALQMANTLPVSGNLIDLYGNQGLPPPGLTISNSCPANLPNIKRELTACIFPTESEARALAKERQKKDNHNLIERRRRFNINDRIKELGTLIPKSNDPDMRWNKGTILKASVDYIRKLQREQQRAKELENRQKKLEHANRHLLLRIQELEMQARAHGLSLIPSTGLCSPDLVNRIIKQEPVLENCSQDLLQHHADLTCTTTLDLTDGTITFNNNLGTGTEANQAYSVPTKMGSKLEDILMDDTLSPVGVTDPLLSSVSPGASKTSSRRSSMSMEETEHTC

[13] = cytotoxicity toward DRD oncogenic fibroblasts, dose response, cell-based, non-viral oncogenic, luminescence (AID 1934); format: functional; conditions: Homo sapiens
A-375 = test: A375 melanoma cell viability reduction, dose response, counter-screen for MITF modulator project, cherry-pick samples, set 2 (AID 540335); format: functional, cell-based; conditions: Homo sapiens
BJ [14] = test: cytotoxicity toward BJ-TERT-LT-ST fibroblasts, dose response, cell-based, RAS-independent, luminescence (AID 1935); format: functional; conditions: Homo sapiens;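 further: BJ fibroblasts immortalized with TERT plus LT and ST oncogenes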
BJ [15] = test: cytotoxicity toward BJ-TERT fibroblasts, dose response, cell-based, RAS-independent, luminescence (AID 1933); format: functional; conditions: Homo sapiens
HEK293 [16] = test: cytotoxicity in HEK293T NF-kB-Luc cells, SAR follow-up, cytotoxicity control for NF-kB activator project, cell-based, resazurin fluorescence (AID 493251); format: functional
[17] = cytotoxicity in HEK-293T cells, dose response, cytotoxicity control for BCR NF-kB inhibitor project, luminescence, B-cell screen hits (AID 489021); format: functional, cell-based;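 further: HEK-293T cells carrying an NF-kB luciferase reporter; cells exposed to compound for about 14 hours before viability readout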
Jurkat = test: SAR Analysis of small molecule inhibitors of T-cell specific antigen receptor-induced NF-kB activation in a Jurkat cell line using a luminescence assay - Set 2. [Related pubchem assays (depositor defined):AID435003, AID435012, AID465]; format: functional, cell-based; conditions: Homo sapiens
HEK293 [18] = test: SAR Analysis of small molecule inhibitors of T-cell specific antigen receptor-induced NF-kB activation in a HEK-293T cell line using a luminescence assay - Set 2. [Related pubchem assays (depositor defined):AID435003, AID435012, AID489026]; format: functional, cell-based; conditions: Homo sapiens

Luciferin 4-monooxygenase, sequence (P08659 whole entry): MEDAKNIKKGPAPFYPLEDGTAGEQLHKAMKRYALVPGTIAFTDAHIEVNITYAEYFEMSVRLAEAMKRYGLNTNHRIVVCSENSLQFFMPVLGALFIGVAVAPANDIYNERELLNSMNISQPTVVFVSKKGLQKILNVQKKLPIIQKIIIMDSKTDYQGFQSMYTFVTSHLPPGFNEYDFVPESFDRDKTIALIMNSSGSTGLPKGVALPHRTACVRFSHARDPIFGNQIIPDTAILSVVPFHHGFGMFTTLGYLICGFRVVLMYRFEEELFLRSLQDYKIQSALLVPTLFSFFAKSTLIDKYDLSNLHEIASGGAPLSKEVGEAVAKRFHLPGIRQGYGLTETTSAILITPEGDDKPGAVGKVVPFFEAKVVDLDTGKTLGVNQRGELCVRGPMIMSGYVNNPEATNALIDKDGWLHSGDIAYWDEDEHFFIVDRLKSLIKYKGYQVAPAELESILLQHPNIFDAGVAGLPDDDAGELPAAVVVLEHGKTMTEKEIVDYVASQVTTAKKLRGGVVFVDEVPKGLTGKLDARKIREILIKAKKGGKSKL

Compound: Nc1cccc2nc3ccccc3cc12
- EC50 [1]: 950 nM (active)
- IC50 [2]: 3.72 µM (active)
- EC50 [3]: 7.26 µM (active)
- AC50 (CAAX prenyl protease 2): 5.07 µM (active)
- IC50 [4]: 4.9 µM (active)
- EC50 (HEK293 [5]): > 6.63 µM (active)
- AC50 [6]: 4.75 µM (active)
- EC50 [7]: > 120 µM (not active)
- AC50 [8]: 54 µM (active)
- EC50 (HT-1080): 22.8 µM (active)
- EC50 (HEK293 [9]): > 59.7 µM (inactive)

Compound: Cc1cc(-n2c(SCC(=O)NCCC3=CCCCC3)nc3nnc(C)c-3c2N)ccc1Cl
- AC50 (Paired box protein Pax-8): 7.33 µM (active)
- EC50 (BJ [10]): > 133 µM (inactive)
- EC50 (BJ [11]): > 150 µM (not active)
- AC50 [12]: 17.1 µM (active)
- EC50 [13]: 14 µM (active)
- AC50 (A-375): 37.6 µM (active)
- EC50 (BJ [14]): > 150 µM (inconclusive)
- EC50 (BJ [15]): 6.61 µM (active)

Compound: CCNC(=O)CCc1nc(-c2ccc(C(C)(C)C)cc2)no1
- IC50 (HEK293 [16]; Homo sapiens, HEK293): 76.1 µM (inactive)
- IC50 (HEK293 [16]; hek293): 79.3 µM (inactive)
- IC50 [17]: > 80 µM (inactive)
- IC50 (Jurkat): > 79 µM (inactive)
- IC50 (HEK293 [18]): 34 µM (inactive)
